From US9272016B2, “Methods to enhance RNAi oligonucleotide delivery to respiratory epithelial cells” (University of Iowa Research Foundation, priority 2012, dated 2016)
Where a SMILES comes first, the peptide text is derived from it. [ ]: non-standard residue; d: D form. Nle = CCCC[C@H](N)C(=O)O; d = 2'-deoxy (DNA); r = 2'-OH (RNA); {P} = phosphate

Legend:
Assay type in all cases: cell-based
HPRT mRNA [1] = assay: Pretreatment of well differentiated pig airway epithelia before HPRT siRNA transfection, qPCR; details: for reduction in HPRT mRNA levels: 6 h drug pretreatment at Cmap or literature concentration, then siRNA-Transductin 24 h (data not shown); for silencing of HPRT mRNA after pretreatment: well differentiated PAE, KGF 50 ng/ml 24 h, EGTA 6 mM 30 m, LLnL 40 μM 24 hrs, then 250 nM HPRT siRNA with RNAiMAX or Transductin
Experimental: (§1) For airway epithelia that were either well or poorly differentiated, transfection was done mostly according to the manufacturer's protocol. In all cases, the apical surface of epithelia was washed twice with PBS before adding the transfection mixture to the apical surface. The mixture was then left on the cells for 24 h for all transfection reagents. For PK1 cells, reverse transfection was performed in a 48-well plate by first adding the siRNA-RNAiMAX reagent mixture onto the plate and then adding the dispersed cells (40,000 cells) on top of the mixture and allowing the cells to adhere and establish growth for 24 h. Before some transfections, pretreatment of cells with various chemicals were performed: Keratinocyte Growth Factor (KGF; Prospec, East Brunswick, N.J.) 50 ng/ml added both apically and basolaterally for 24 h; EGTA 6 mM added apically for 30 m; N-Acetyl-L-Leucyl-L-Leucyl-L-Norleucinal (LLnL; ICN Biochemicals, Inc, Costa Mesa, Calif.) 40 μM added both apically and basolaterally for 24 hrs; human Epidermal Growth Factor (EGF; Sigma-Aldrich, St. Louis, Mo.) 100 μg/ml, added apically for 15 m.
(§2) Total RNA was isolated using SV96 RNA isolation kit (Promega), according to manufacturer's protocol. Two hundred fifty ng of total RNA were reverse transcribed using oligo (dT) (Roche, Indianapolis, Ind.) and random hexamers (Invitrogen, Grand Island, N.Y.) and Superscript II (Invitrogen, Grand Island, N.Y.) according to manufacturer's instructions. One-fifteenth of the cDNA was then amplified and analyzed by Taqman assay in the 7900 Real Time PCR System (Applied Biosystems) using synthesized primer-probe pairs (IDT, Coralville, Iowa), reaction buffer and Immolase DNA polymerase (Bioline, Taunton, Mass.). The reaction mix was contained in a total volume of 10 μl and the reaction condition was an initial cycle of 95° C. for 10 min, then 40 cycles of 95° C. for 15 s and 60° C. for 1 min. All data were normalized to the internal standard, RPL4 mRNA for pig airway samples and SFRS9 mRNA for human airway samples. Absolute quantification of an mRNA target sequence within an unknown sample was determined by reference to a standard curve. The standard curve was based on the real-time PCR amplification of standard amounts of the specific gene in a control NC1 cDNA.
(§3) Wortmannin was purchased from Sigma (St. Louis, Mo.) as a ready to use solution. […] Monensin was purchased from Sigma (St. Louis, Mo.) and was dissolved in water. For experiments with drugs, the cells were pre-treated with drugs for 6 h usually at a concentration that was used in the Cmap study (Lamb J et al., The connectivity map: Using gene-expression signatures to connect small molecules, genes, and disease. Science 2006; 313(5795):1929-1935) or in other published studies. After the drug treatment, the cells were transfected with siRNA as described before.

HPRT mRNA [2] = assay: Pretreatment of well-differentiated human airway epithelia before HPRT siRNA transfection, qPCR; details: for reduction in HPRT mRNA levels: 6 h drug pretreatment at Cmap or literature concentration, then siRNA-Transductin 24 h (data not shown); for decrease in HPRT mRNA levels: vs nontargeting controls (FIG. 5c)
Experimental: as §1, §2, §3

CFTR = assay: LY-294002 pretreatment of human airway cells before CFTR siRNA transfection, qPCR; design: dose or concentration left out as unconfirmed; details: siRNA with Transductin, 24 h, vs nontargeting control (FIG. 12b)
Experimental: (§4) For airway epithelia that were either well or poorly differentiated, transfection was done mostly according to the manufacturer's protocol. In all cases, the apical surface of epithelia was washed twice with PBS before adding the transfection mixture to the apical surface. The mixture was then left on the cells for 24 h for all transfection reagents. For PK1 cells, reverse transfection was performed in a 48-well plate by first adding the siRNA-RNAiMAX reagent mixture onto the plate and then adding the dispersed cells (40,000 cells) on top of the mixture and allowing the cells to adhere and establish growth for 24 h. […]
(§5) Total RNA was isolated using SV96 RNA isolation kit (Promega), according to manufacturer's protocol. […] One-fifteenth of the cDNA was then amplified and analyzed by Taqman assay in the 7900 Real Time PCR System (Applied Biosystems) using synthesized primer-probe pairs (IDT, Coralville, Iowa), reaction buffer and Immolase DNA polymerase (Bioline, Taunton, Mass.). […] Absolute quantification of an mRNA target sequence within an unknown sample was determined by reference to a standard curve. […]
(§6) Wortmannin was purchased from Sigma (St. Louis, Mo.) as a ready to use solution. […]

SIN3A = assay: LY-294002 pretreatment of human airway cells before SIN3A siRNA transfection, qPCR; design: dose or concentration left out as unconfirmed; details: siRNA with Transductin, 24 h, vs nontargeting control (FIG. 12a)
Experimental: as §4, §5, §6

human airway epithelia = assay: Confocal imaging of DIG-labeled siRNA uptake in human airway epithelia; details: cells transfected with DIG-siRNA, fluorescent images, species not stated (data not shown)
Experimental: The primary human airway epithelia grown at air-liquid interface were transfected with the DIG-labeled siRNA at a concentration of 250 ng/ml after complexing with Transductin. The transfection mixture was left on the apical surface for 2 h. At the end of this period, the cells were fixed in 2% formaldehyde, permeabilized in 0.2% Triton-x-100 and blocked in 1% BSA for 1 h. The cells were then stained with mouse antibody to DIG (Roche Biochemicals) for 1 h followed by either Alexa 488 labeled goat anti-mouse secondary antibody for 1 h followed by Alexa 488 labeled rabbit […] antibody (Invitrogen) for 1 or in some cases with Alexa 564 goat anti-mouse secondary antibody for 1 h. The cells were finally stained with nuclear stain, ToPro 3 for 10 minutes. The filter, containing the cells, was removed from the culture insert by cutting the edges with razor blade and then mounted onto a slide by the use of Vectashield. The slide was visualized by confocal microscopy.

IL-8 = IL-8 siRNA transfection of poorly differentiated pig airway epithelia (2 and 5 days old), qPCR; details: for silencing of IL-8: 250 ng siRNA with Transductin, 24 h (FIG. 11a); for knockdown of IL-8: poorly differentiated pig airway cultures, siRNA 250 ng, 24 h (FIG. 9a)
Experimental: as §1
as §2, with “cDNA. PCR efficiency for all reactions was within the acceptable margin of 90-110%. All the results of the samples were presented as remaining mRNA level in comparison to the mRNA level in the control samples (NC1), which was normalized to 100%.” for “cDNA.”

pig HPRT = assay: Dicer-substrate siRNA silencing in PK1 cells, qPCR of HPRT mRNA; details: reverse transfection with RNAiMAX, 1 nM and 10 nM siRNA, 24 h, vs nontargeting control NC1
Experimental: as §4, §5
siRNAs were designed and synthesized to specifically target pig HPRT (ssHPRT) and IL-8 (IL-8 1098 and IL-8 1466). […] Quantitative real-time PCR was performed to measure the extent of mRNA reduction. […]

## C=C1CC[C@H](O)C/C1=C/C=C1\CCC[C@]2(C)[C@@H]([C@H](C)/C=C/[C@H](C)C(C)C)CC[C@@H]12 [ergocalciferol]
HPRT mRNA [1]; pig epithelia
  reduction in HPRT mRNA levels: no reduction
HPRT mRNA [2]; human epithelia
  reduction in HPRT mRNA levels: no reduction

## CC(=O)O[C@H]1C(=O)[C@@]2(C)[C@H]([C@H](OC(=O)c3ccccc3)[C@]3(O)C[C@H](OC(=O)[C@H](O)[C@@H](NC(=O)c4ccccc4)c4ccccc4)C(C)=C1C3(C)C)[C@]1(OC(C)=O)CO[C@@H]1C[C@@H]2O [paclitaxel]
HPRT mRNA [1]; pig epithelia
  reduction in HPRT mRNA levels: no reduction
HPRT mRNA [2]; human epithelia
  reduction in HPRT mRNA levels: no reduction

## O=C(O)CN(CCOCCOCCN(CC(=O)O)CC(=O)O)CC(=O)O [EGTA]
HPRT mRNA [1]
  silencing of HPRT mRNA after pretreatment: did not result in silencing

## O=c1cc(N2CCOCC2)oc2c(-c3ccccc3)cccc12 [LY-294002, 2-morpholin-4-yl-8-phenylchromen-4-one]
HPRT mRNA [1]; pig airway cells, several donors (data not shown)
  range of silencing effects (inhibition): 10-20%
HPRT mRNA [1]; pig epithelia, 10 μM for 6 h apically, vs nontargeting control (FIG. 5b)
  silencing of HPRT: about 20%
CFTR
  reduction in mRNA levels of CFTR: 20%
HPRT mRNA [2]; human airway cells, several donors (data not shown)
  range of silencing effects (inhibition): 10-55%
HPRT mRNA [2]; human epithelia, 10 μM for 6 h apically, vs nontargeting control (FIG. 5a)
  silencing of HPRT: about 40%
SIN3A
  reduction in mRNA levels of SIN3A: 25%
Human airway epithelia
  siRNA uptake: improved siRNA uptake

## IL-8 1098: Dicer-substrate siRNA against pig IL-8, SEQ ID NO: 5 and 6 (chain 1 GGCAAAUUGUUAAACGAACAGAATA; chain 2 UAUUCUGUUCGUUUAACAAUUUGCCAA; chain 1: sugars from the 5' end r23 d2, 5' {P}, backbone not given here; chain 2: RNA, backbone not given here)
IL-8; 2-day old pig airway epithelia
  silencing of IL-8: Silencing of IL-8 is seen
IL-8; 5-day old pig airway epithelia
  silencing of IL-8: not in 5-day old epithelia
IL-8
  knockdown of IL-8: Knockdown of IL-8 is seen

## O=S(=O)(c1cccc2cnccc12)N1CCCNCC1 [fasudil]
HPRT mRNA [1]; pig epithelia
  reduction in HPRT mRNA levels: no reduction
HPRT mRNA [2]; human epithelia
  reduction in HPRT mRNA levels: no reduction

## ssHPRT: Dicer-substrate siRNA against pig HPRT, SEQ ID NO: 1 and 2 (chain 1 CCAGUAAAGUUAUCACAUGUUCUAG; chain 2 CUAGAACAUGUGAUAACUUUACUGNGG; chemistry not fully specified)
Pig HPRT
  decrease of targeting mRNA (HPRT): more than 90%

## IL-8 1466: Dicer-substrate siRNA against pig IL-8, SEQ ID NO: 7 and 8 (chain 1 UGAGUGUAACUAUAGAACAUUUACA; chain 2 UGUAAAUGUUCUAUAGUUACACUCACA; chain 1: sugars from the 5' end r23 d2, 5' {P}, backbone not given here; chain 2: RNA, backbone not given here)
IL-8; 2-day old pig airway epithelia
  silencing of IL-8: Silencing of IL-8 is seen
IL-8; 5-day old pig airway epithelia
  silencing of IL-8: not in 5-day old epithelia
IL-8
  knockdown of IL-8: Knockdown of IL-8 is seen

## COC[C@H]1OC(=O)c2coc3c2[C@@]1(C)C1=C(C3=O)[C@@H]2CCC(=O)[C@@]2(C)C[C@H]1OC(C)=O [wortmannin]
HPRT mRNA [2]; human airway cells, 10 nM pretreatment
  decrease in HPRT mRNA levels: about 20%
HPRT mRNA [2]; human airway cells, 40 nM pretreatment
  decrease in HPRT mRNA levels: ~30%

## O=C1CC[C@@]2(O)[C@H]3Cc4ccc(O)c5c4[C@@]2(CCN3CC2CC2)[C@H]1O5 [naltrexone]
HPRT mRNA [1]; pig epithelia
  reduction in HPRT mRNA levels: no reduction
HPRT mRNA [2]; human epithelia
  reduction in HPRT mRNA levels: no reduction

## CCCC[C@@H](C=O)NC(=O)[C@H](CC(C)C)NC(=O)[C@H](CC(C)C)NC(C)=O [LLnL, N-Acetyl-L-Leucyl-L-Leucyl-L-Norleucinal] (Ac-Leu-Leu-[Nle]-aldehyde)
HPRT mRNA [1]
  silencing of HPRT mRNA after pretreatment: no effect on silencing
